Measurements published in US20260152799A1, “TUMOUR STRATIFICATION FOR RESPONSIVENESS TO AN IMMUNE CHECKPOINT INHIBITOR” (MEMORIAL SLOAN-KETTERING CANCER CENTER, priority 2022, published 2026).

Key:
PD-L1 [1] = molecular target: T1, PD-L1 (Homo sapiens, UniProt Q9NZQ7); settings: xenograft model, T-cell dependent mechanism; cited from earlier work
PD-L1 [2] = molecular target: T1, PD-L1; settings: in vitro; cited from earlier work
metastatic melanoma [3] = test: Riaz et al clinical cohort: response to nivolumab by tumour mtDNA mutation status; type: in vivo, humans
Procedure: A—Stratification of a metastatic melanoma patient cohort by mtDNA status. […] P-values were determined using one-way ANOVA test with Sidak multiple comparisons test (C,F), one-tailed student's t-test (I) or chi-squared test (H) were applied. Error bars indicate SD. Measure of centrality is mean.
The inventors then assessed whether this would be associated with clinical outcome.
Aligned reads for ChrM for patients' tumour and normal samples were acquired and processed according to previously described pipelines which are now publicly available (see e.g. Gorelick et al., Nature Metabolism 2021). Mutation calls and calculated heteroplasmy were used to assign patients to mtDNA wildtype, <50% VAF or >50% VAF groups.

metastatic melanoma [4] = settings: of the 15 responders; cited from earlier work

T1 sequence (Q9NZQ7 19-290): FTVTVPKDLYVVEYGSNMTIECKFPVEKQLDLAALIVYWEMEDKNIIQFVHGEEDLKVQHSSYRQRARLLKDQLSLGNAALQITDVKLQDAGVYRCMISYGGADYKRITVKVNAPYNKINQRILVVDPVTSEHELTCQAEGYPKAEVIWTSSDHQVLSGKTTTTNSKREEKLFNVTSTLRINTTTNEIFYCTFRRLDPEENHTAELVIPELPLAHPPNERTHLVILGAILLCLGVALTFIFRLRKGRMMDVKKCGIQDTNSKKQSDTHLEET

| Substance | Effect on tumour growth (PD-L1 [1]) | Effect on PD-L1-mediated suppression of human T-cell activation (PD-L1 [2]) | Tumours responding to nivolumab (metastatic melanoma [3]; <50% VAF tumours) [%] | Tumours responding to nivolumab (metastatic melanoma [3]; >50% VAF tumours) [%] | Complete responders categorised as >50% VAF (metastatic melanoma [3]; out of the 3 complete responders) | Complete responses (metastatic melanoma [4]) | Partial responses (metastatic melanoma [4]) |
| --- | --- | --- | --- | --- | --- | --- | --- |
| MEDI4736: anti-PD-L1 antibody selective for PD-L1 that blocks binding of PD-L1 to PD-1 and CD80 | inhibit tumour growth | relieve PD-L1-mediated suppression of human T-cell activation |  |  |  |  |  |
| nivolumab |  |  | 17 | 40 | 2 | 3 | 12 |
